Laboratory results taken from patent US9302999B2, “Substituted triazoles as herbicides” (E. I. DU PONT DE NEMOURS AND COMPANY, priority 2012, dated 2016).

Key:
Assay type in all cases: in vivo
rice (Oryza sativa) = assay: Test B flooded paddy: rice; conditions: Flood, applied to paddy water at 2-leaf stage, visually evaluated after 13 to 15 days
How it was run: (§1)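 Visual ratings (0 = no effect, 100 = complete control) versus untreated controls were taken 13–15 days after treatment of greenhouse plants. Treatment was added to paddy water held at 3 cm depth on 2-leaf-stage seedlings.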

[1] = tested on: barnyardgrass (Echinochloa crus-galli); assay: Test B flooded paddy: barnyardgrass; conditions: Flood, applied to paddy water at 2-leaf stage, visually evaluated after 13 to 15 days
How it was run: as §1

[2] = tested on: winter wheat (Triticum aestivum); assay: Test C pre-/postemergence: winter wheat
How it was run: (§2)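 Visual injury scored 0–100 (100 = complete control) against untreated controls after 13–15 greenhouse days. Surfactant-containing solvent formulations applied either to soil after sowing (loam/sand) or over 1- to 4-leaf plants, 2–18 cm tall.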

corn (Zea mays) = assay: Test C pre-/postemergence: corn
How it was run: as §2

soybean (Glycine max) = assay: Test C pre-/postemergence: soybean
How it was run: as §2

[3] = tested on: blackgrass (Alopecurus myosuroides); assay: Test C pre-/postemergence: blackgrass
How it was run: as §2

kochia (Kochia scoparia) = assay: Test C pre-/postemergence: kochia
How it was run: as §2

[4] = tested on: johnsongrass (Sorghum halepense); assay: Test C pre-/postemergence: johnsongrass
How it was run: as §2

[5] = tested on: foxtail, giant (giant foxtail, Setaria faberii); assay: Test C pre-/postemergence: foxtail, giant
How it was run: as §2

[6] = tested on: pigweed (Amaranthus retroflexus); assay: Test C pre-/postemergence: pigweed
How it was run: as §2

[7] = tested on: velvetleaf (Abutilon theophrasti); assay: Test C pre-/postemergence: velvetleaf
How it was run: as §2

[8] = Postemergence, 31 g ai/ha, scale 0 to 100 (0 no effect, 100 complete control)
[9] = Postemergence, 62 g ai/ha, scale 0 to 100 (0 no effect, 100 complete control)
[10] = Postemergence, 125 g ai/ha, scale 0 to 100, 0 no effect, 100 complete control
[11] = Postemergence, 250 g ai/ha, scale 0 to 100
[12] = Preemergence, 31 g ai/ha, scale of 0 to 100, 0 is no effect, 100 is complete control
[13] = Preemergence, 62 g ai/ha, scale of 0 to 100, 0 is no effect, 100 is complete control
[14] = Preemergence, 125 g ai/ha, scale 0 to 100, 0 no effect, 100 complete control
[15] = Preemergence, 250 g ai/ha, scale 0 to 100, 0 no effect, 100 complete control
[16] = Preemergence, 62 g ai/ha, scale 0 to 100, 0 no effect, 100 complete control

## Cc1nn(-c2ccc(F)cc2F)nc1Cc1ccnc(C(F)(F)F)c1 [Compound 54, 4-[[2-(2,4-difluorophenyl)-5-methyl-2H-1,2,3-triazol-4-yl]methyl]-2-(trifluoromethyl)pyridine]
Rice (Oryza sativa); 250 g ai/ha
  Plant response rating, Rice (0 to 100 scale, 0 is no effect, 100 is complete control): 30
[1]; 250 g ai/ha
  Plant response rating, Barnyardgrass (0 to 100 scale, 0 is no effect, 100 is complete control): 30

## Cc1nn(-c2ccc(C(F)(F)F)cc2)nc1Oc1ccnc(C(F)(F)F)c1 [Compound 120]
[2]; [8]
  Plant response rating, Wheat: 10
[2]; [9]
  Plant response rating, Wheat: 10
[2]; [10]
  Plant response rating, Wheat: 35
[2]; [11]
  Plant response rating, Wheat: 35
[2]; [12]
  Plant response rating, Wheat: 5
[2]; [13]
  Plant response rating, Wheat: 25
[2]; [14]
  Plant response rating, Wheat: 40
[2]; [15]
  Plant response rating, Wheat: 50
Corn (Zea mays); [8]
  Plant response rating, Corn: 5
Corn (Zea mays); [9]
  Plant response rating, Corn: 10
Corn (Zea mays); [10]
  Plant response rating, Corn: 10
Corn (Zea mays); [11]
  Plant response rating, Corn: 10
Corn (Zea mays); [12]
  Plant response rating, Corn: 0
Corn (Zea mays); [16]
  Plant response rating, Corn: 5
Corn (Zea mays); [14]
  Plant response rating, Corn: 25
Corn (Zea mays); [15]
  Plant response rating, Corn: 50
Soybean (Glycine max); [8]
  Plant response rating, Soybean: 25
Soybean (Glycine max); [9]
  Plant response rating, Soybean: 25
Soybean (Glycine max); [10]
  Plant response rating, Soybean: 55
Soybean (Glycine max); [11]
  Plant response rating, Soybean: 100
Soybean (Glycine max); [12]
  Plant response rating, Soybean: 0
Soybean (Glycine max); [13]
  Plant response rating, Soybean: 5
Soybean (Glycine max); [14]
  Plant response rating, Soybean: 10
Soybean (Glycine max); [15]
  Plant response rating, Soybean: 20
[3]; [8]
  Plant response rating, Blackgrass: 25
[3]; [9]
  Plant response rating, Blackgrass: 30
[3]; [10]
  Plant response rating, Blackgrass: 60
[3]; [11]
  Plant response rating, Blackgrass: 85
[3]; [12]
  Plant response rating, Blackgrass: 90
[3]; [16]
  Plant response rating, Blackgrass: 90
[3]; [14]
  Plant response rating, Blackgrass: 90
[3]; [15]
  Plant response rating, Blackgrass: 90
Kochia (Kochia scoparia); [8]
  Plant response rating, Kochia: 65
Kochia (Kochia scoparia); [9]
  Plant response rating, Kochia: 95
Kochia (Kochia scoparia); [10]
  Plant response rating, Kochia: 98
Kochia (Kochia scoparia); [11]
  Plant response rating, Kochia: 98
Kochia (Kochia scoparia); [12]
  Plant response rating, Kochia: 10
Kochia (Kochia scoparia); [13]
  Plant response rating, Kochia: 90
Kochia (Kochia scoparia); [14]
  Plant response rating, Kochia: 100
Kochia (Kochia scoparia); [15]
  Plant response rating, Kochia: 100
[4]; [8]
  Plant response rating, Johnsongrass: 0
[4]; [9]
  Plant response rating, Johnsongrass: 5
[4]; [10]
  Plant response rating, Johnsongrass: 25
[4]; [11]
  Plant response rating, Johnsongrass: 45
[4]; [12]
  Plant response rating, Johnsongrass: 25
[4]; [13]
  Plant response rating, Johnsongrass: 80
[4]; [14]
  Plant response rating, Johnsongrass: 95
[4]; [15]
  Plant response rating, Johnsongrass: 98
[5]; [8]
  Plant response rating, Foxtail, Giant: 5
[5]; [9]
  Plant response rating, Foxtail, Giant: 45
[5]; [10]
  Plant response rating, Foxtail, Giant: 50
[5]; [11]
  Plant response rating, Foxtail, Giant: 55
[5]; [12]
  Plant response rating, Foxtail, Giant: 98
[5]; [13]
  Plant response rating, Foxtail, Giant: 98
[5]; [14]
  Plant response rating, Foxtail, Giant: 98
[5]; [15]
  Plant response rating, Foxtail, Giant: 100
[6]; [8]
  Plant response rating, Pigweed: 95
[6]; [9]
  Plant response rating, Pigweed: 98
[6]; [10]
  Plant response rating, Pigweed: 98
[6]; [11]
  Plant response rating, Pigweed: 100
[6]; [12]
  Plant response rating, Pigweed: 100
[6]; [13]
  Plant response rating, Pigweed: 100
[6]; [14]
  Plant response rating, Pigweed: 100
[6]; [15]
  Plant response rating, Pigweed: 100
[7]; [8]
  Plant response rating, Velvetleaf: 20
[7]; [9]
  Plant response rating, Velvetleaf: 45
[7]; [10]
  Plant response rating, Velvetleaf: 55
[7]; [11]
  Plant response rating, Velvetleaf: 65
[7]; [12]
  Plant response rating, Velvetleaf: 5
[7]; [13]
  Plant response rating, Velvetleaf: 15
[7]; [14]
  Plant response rating, Velvetleaf: 35
[7]; [15]
  Plant response rating, Velvetleaf: 100

## CCOCc1nn(-c2ccc(F)cc2)nc1Oc1ccnc(C(F)(F)F)c1 [Compound 163]
[2]; [13]
  Plant response rating, Wheat: 0
[2]; [14]
  Plant response rating, Wheat: 0
[2]; [15]
  Plant response rating, Wheat: 0
Corn (Zea mays); [12]
  Plant response rating, Corn: 10
Corn (Zea mays); [13]
  Plant response rating, Corn: 10
Corn (Zea mays); [15]
  Plant response rating, Corn: 10
Soybean (Glycine max); [12]
  Plant response rating, Soybean: 5
Soybean (Glycine max); [13]
  Plant response rating, Soybean: 5
Soybean (Glycine max); [14]
  Plant response rating, Soybean: 10
Soybean (Glycine max); [15]
  Plant response rating, Soybean: 20
Rice (Oryza sativa); 125 g ai/ha
  Plant response rating, Rice (0 to 100 scale, 0 is no effect, 100 is complete control): 15
[3]; [12]
  Plant response rating, Blackgrass: 5
[3]; [13]
  Plant response rating, Blackgrass: 85
[3]; [14]
  Plant response rating, Blackgrass: 90
[3]; [15]
  Plant response rating, Blackgrass: 95
[4]; [12]
  Plant response rating, Johnsongrass: 30
[4]; [13]
  Plant response rating, Johnsongrass: 35
[4]; [14]
  Plant response rating, Johnsongrass: 60
[4]; [15]
  Plant response rating, Johnsongrass: 60
[1]; 125 g ai/ha
  Plant response rating, Barnyardgrass (0 to 100 scale, 0 is no effect, 100 is complete control): 15
[5]; [12]
  Plant response rating, Foxtail, Giant: 40
[5]; [13]
  Plant response rating, Foxtail, Giant: 60
[5]; [14]
  Plant response rating, Foxtail, Giant: 80
[5]; [15]
  Plant response rating, Foxtail, Giant: 100
[6]; [12]
  Plant response rating, Pigweed: 95
[6]; [13]
  Plant response rating, Pigweed: 98
[6]; [14]
  Plant response rating, Pigweed: 100
[6]; [15]
  Plant response rating, Pigweed: 100
[7]; [12]
  Plant response rating, Velvetleaf: 0
[7]; [13]
  Plant response rating, Velvetleaf: 10
[7]; [14]
  Plant response rating, Velvetleaf: 20
[7]; [15]
  Plant response rating, Velvetleaf: 75
